Biological target: T1, BOry (recombinant Orysata from E. coli) (Oryza sativa, UniProt Q0JMY8)
T1 construct: gene SALT; pColdII, N-terminal poly-His tag kept; E. coli BL21; non-glycosylated
T1 sequence (Q0JMY8 1-145): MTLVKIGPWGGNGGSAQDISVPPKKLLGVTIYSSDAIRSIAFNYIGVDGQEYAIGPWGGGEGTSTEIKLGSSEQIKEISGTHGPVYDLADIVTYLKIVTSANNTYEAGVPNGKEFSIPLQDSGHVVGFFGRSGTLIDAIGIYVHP
Experiment: competition: FITC-BOry on blot of glycosylated YOry
Format: binding
Conditions: 20 mM mannose in PBS preincubated 20 min; FITC-labelled lectin; competitive with the N-glycan of YOry

Compound: OC[C@H]1OC(O)[C@@H](O)[C@@H](O)[C@@H]1O (stereo partly shown) [mannose]
- competition: FITC-BOry on blot of glycosylated YOry: Preincubation of the FITC-BOry with mannose, abolished the binding to the glycosylated YOry

From paper PMC8429549, “Glycosylation reduces the glycan-independent immunomodulatory effect of recombinant Orysata lectin in Drosophila S2 cells” (Scientific Reports, 2021)
